We go through 31 compounds from patent US9890149B2 (NuBridge BioSciences, priority 2015, dated 2018).

For this assay, the target named is T1, ΔF508 mutant CFTR (Homo sapiens, UniProt P13569, DEL508-508).
T1 construct: expressed in transfected cells; host or cells: Fischer rat thyroid (FRT) cells
The assay can be described thus: Fluorescence Assay (halide-sensitive YFP, iodide influx) for ΔF508 mutant CFTR activity. Conditions: FRT cells expressing ΔF508-CFTR and YFP-H148Q/I152L, incubated 27° C. 20-24 h; forskolin (20 μM) and test compounds (20 μM) for 20 min; rate of fluorescence quenching by I−, normalized to forskolin alone. The assay is classed as cell-based. An excerpt: The ΔF508 mutant CFTR activities of the CFTR modulators are detected using the Fluorescence Assay developed by Pedemonte (Pedemonte N., et al., Antihypertensive 1,4-dihydropyridines as correctors of the cystic fibrosis transmembrane conductance regulator channel gating defect caused by cystic fibrosis mutations, Mol. Pharmacol., 2005, 68, 1736-1746).
Fischer rat thyroid (FRT) cells, stably transfected with ΔF508 were retransfected with the YFP-H148Q/I152L fluorescent protein. The cells were plated (100,000 cells/well) on black 96-well microplates with clear plastic bottom (Corning Life Sciences, Acton, Mass.).
The 96-well microplates containing FRT cells expressing F508-CFTR and the halide-sensitive YFP were incubated at 27° C. for 20 to 24 h to allow rescue of the mutant protein to the plasma membrane. After incubation, cells were washed with PBS (containing 137 mM NaCl, 2.7 mM KCl, 8.1 mM Na2HPO4, 1.5 mM KH2PO4, 1 mM CaCl2, and 0.5 mM MgCl2) and stimulated for 20 min with forskolin (20 μM) and test compounds (20 μM) in a final volume of […] Microplates were then transferred to a microplate reader for CFTR activity determination.

Structures can show the parent of a compound that is named as a salt.

T1 sequence (P13569 with tags, fused parts or gaps DEL508-508): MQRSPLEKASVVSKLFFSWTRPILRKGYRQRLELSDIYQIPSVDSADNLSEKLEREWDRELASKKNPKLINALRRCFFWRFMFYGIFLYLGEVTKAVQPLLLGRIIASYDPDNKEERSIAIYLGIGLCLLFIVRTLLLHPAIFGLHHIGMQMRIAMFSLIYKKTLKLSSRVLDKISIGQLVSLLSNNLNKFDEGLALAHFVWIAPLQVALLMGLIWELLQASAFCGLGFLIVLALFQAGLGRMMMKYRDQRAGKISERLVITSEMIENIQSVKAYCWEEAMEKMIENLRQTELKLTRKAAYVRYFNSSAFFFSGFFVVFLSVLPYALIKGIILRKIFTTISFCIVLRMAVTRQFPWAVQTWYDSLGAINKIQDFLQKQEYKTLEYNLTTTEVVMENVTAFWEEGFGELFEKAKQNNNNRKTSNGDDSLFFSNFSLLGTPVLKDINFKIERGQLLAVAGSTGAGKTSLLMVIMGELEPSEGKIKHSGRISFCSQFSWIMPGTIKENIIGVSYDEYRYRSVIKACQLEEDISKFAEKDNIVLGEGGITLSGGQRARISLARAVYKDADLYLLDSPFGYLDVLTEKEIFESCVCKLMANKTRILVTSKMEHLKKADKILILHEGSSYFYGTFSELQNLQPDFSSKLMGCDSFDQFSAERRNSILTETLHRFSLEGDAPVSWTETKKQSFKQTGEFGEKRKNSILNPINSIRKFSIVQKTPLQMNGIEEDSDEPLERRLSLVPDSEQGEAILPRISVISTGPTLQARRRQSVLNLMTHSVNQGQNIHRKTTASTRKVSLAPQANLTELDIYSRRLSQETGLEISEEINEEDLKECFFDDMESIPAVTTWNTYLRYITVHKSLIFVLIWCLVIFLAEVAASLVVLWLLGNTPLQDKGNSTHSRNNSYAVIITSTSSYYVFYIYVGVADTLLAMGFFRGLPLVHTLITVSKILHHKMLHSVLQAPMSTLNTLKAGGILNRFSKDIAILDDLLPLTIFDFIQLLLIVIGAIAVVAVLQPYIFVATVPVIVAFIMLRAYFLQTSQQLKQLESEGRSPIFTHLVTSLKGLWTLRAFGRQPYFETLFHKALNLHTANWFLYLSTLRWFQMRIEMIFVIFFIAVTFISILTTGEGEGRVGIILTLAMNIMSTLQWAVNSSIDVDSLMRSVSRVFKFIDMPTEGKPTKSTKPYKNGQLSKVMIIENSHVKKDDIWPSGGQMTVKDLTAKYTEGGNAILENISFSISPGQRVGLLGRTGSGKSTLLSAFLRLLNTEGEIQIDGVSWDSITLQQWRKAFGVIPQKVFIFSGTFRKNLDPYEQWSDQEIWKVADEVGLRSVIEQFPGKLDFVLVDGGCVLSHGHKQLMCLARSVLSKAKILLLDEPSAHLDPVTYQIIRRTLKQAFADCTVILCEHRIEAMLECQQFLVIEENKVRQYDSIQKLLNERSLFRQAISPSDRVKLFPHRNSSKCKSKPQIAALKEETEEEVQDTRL

On to `Cl.O=C(Nc1cnsc1OCC1CCNCC1)c1ccc(F)c(-c2c(F)cccc2F)n1` [Example 1, 6-(2,6-difluorophenyl)-5-fluoro-N-(5-(piperidin-4-ylmethoxy)isothiazol-4-yl)picolinamide hydrochloride], for which the “CFTR Activity” value is recorded as 0.9.

For the compound `Cl.O=C(Nc1cnsc1OCC1CNC1)c1ccc(F)c(-c2c(F)cccc2F)n1` [Example 2, N-(5-(azetidin-3-ylmethoxy)isothiazol-4-yl)-6-(2,6-difluorophenyl)-5-fluoropicolinamide hydrochloride], the “CFTR Activity” value is 0.2.

`Cl.O=C(Nc1cnsc1OC1CCNCC1)c1ccc(F)c(-c2c(F)cccc2F)n1` [Example 3, 6-(2,6-difluorophenyl)-5-fluoro-N-(5-(piperidin-4-yloxy)isothiazol-4-yl)picolinamide hydrochloride]: the “CFTR Activity” value was 1.3.

Turning to `Cl.O=C(Nc1cnsc1OC1CCNC1)c1ccc(F)c(-c2c(F)cccc2F)n1` (stereo not shown) [Example 4, 6-(2,6-difluorophenyl)-5-fluoro-N-(5-(pyrrolidin-3-yloxy)isothiazol-4-yl)picolinamide hydrochloride], the “CFTR Activity” value is on record as 0.8.

Consider `Cl.O=C(Nc1cnsc1OC1CCCNC1)c1ccc(F)c(-c2c(F)cccc2F)n1` (stereo not shown) [Example 5, 6-(2,6-difluorophenyl)-5-fluoro-N-(5-(piperidin-3-yloxy)isothiazol-4-yl)picolinamide hydrochloride], for which the “CFTR Activity” value was 0.5.

In the case of `Cl.O=C(Nc1cnsc1OC1CCCNCC1)c1ccc(F)c(-c2c(F)cccc2F)n1` (stereo not shown) [Example 6, N-(5-(azepan-4-yloxy)isothiazol-4-yl)-6-(2,6-difluorophenyl)-5-fluoropicolinamide hydrochloride], the “CFTR Activity” value came out at 1.4.

With `Cl.O=C(Nc1cnsc1OCC1CCCNC1)c1ccc(F)c(-c2c(F)cccc2F)n1` (stereo not shown) [Example 7, 6-(2,6-difluorophenyl)-5-fluoro-N-(5-(piperidin-3-ylmethoxy)isothiazol-4-yl)picolinamide hydrochloride], the “CFTR Activity” value came out at 0.9.

Turning to `Cl.O=C(Nc1cnsc1OCC1CCNC1)c1ccc(F)c(-c2c(F)cccc2F)n1` (stereo not shown) [Example 8, 6-(2,6-difluorophenyl)-5-fluoro-N-(5-(pyrrolidin-3-ylmethoxy)isothiazol-4-yl)picolinamide hydrochloride], the “CFTR Activity” value worked out at 0.7.

Turning to `Cl.O=C(Nc1cnsc1OC1CNC1)c1ccc(F)c(-c2c(F)cccc2F)n1` [Example 9, N-(5-(azetidin-3-yloxy)isothiazol-4-yl)-6-(2,6-difluorophenyl)-5-fluoropicolinamide hydrochloride], the “CFTR Activity” value was 0.1.

As for `Cl.N[C@H]1CC[C@H](Oc2sncc2NC(=O)c2ccc(F)c(-c3c(F)cccc3F)n2)CC1` [Example 10, N-(5-(((1r,4r)-4-aminocyclohexyl)oxy)isothiazol-4-yl)-6-(2,6-difluorophenyl)-5-fluoropicolinamide hydrochloride], the “CFTR Activity” value came out at 1.

`Cl.NC1CCCC(Oc2sncc2NC(=O)c2ccc(F)c(-c3c(F)cccc3F)n2)C1` (stereo not shown) [Example 11, N-(5-((3-aminocyclohexyl)oxy)isothiazol-4-yl)-6-(2,6-difluorophenyl)-5-fluoropicolinamide hydrochloride]: the “CFTR Activity” value is 1.1.

For `Cl.NCCCOc1sncc1NC(=O)c1ccc(F)c(-c2c(F)cccc2F)n1` [Example 12, N-(5-(3-aminopropoxy)isothiazol-4-yl)-6-(2,6-difluorophenyl)-5-fluoropicolinamide hydrochloride], the “CFTR Activity” value is listed as 0.7.

Regarding `CNCCCOc1sncc1NC(=O)c1ccc(F)c(-c2c(F)cccc2F)n1.Cl` [Example 13, 6-(2,6-difluorophenyl)-5-fluoro-N-(5-(3-(methylamino)propoxy)isothiazol-4-yl)picolinamide hydrochloride], the “CFTR Activity” value was found to be 0.5.

Take `CN(C)CCCOc1sncc1NC(=O)c1ccc(F)c(-c2c(F)cccc2F)n1.Cl` [Example 14, 6-(2,6-difluorophenyl)-N-(5-(3-(dimethylamino)propoxy)isothiazol-4-yl)-5-fluoropicolinamide hydrochloride]: the “CFTR Activity” value turned out to be 0.3.

Consider `Cl.NCCCCOc1sncc1NC(=O)c1ccc(F)c(-c2c(F)cccc2F)n1` [Example 15, N-(5-(4-aminobutoxy)isothiazol-4-yl)-6-(2,6-difluorophenyl)-5-fluoropicolinamide hydrochloride], for which the “CFTR Activity” value worked out at 0.7.

Take `CNCCCCOc1sncc1NC(=O)c1ccc(F)c(-c2c(F)cccc2F)n1.Cl` [Example 16, 6-(2,6-difluorophenyl)-5-fluoro-N-(5-(4-(methylamino)butoxy)isothiazol-4-yl)picolinamide hydrochloride]: the “CFTR Activity” value was 0.5.

On to `O=C(Nc1cnsc1OCCCO)c1ccc(F)c(-c2c(F)cccc2F)n1` [Example 17, 6-(2,6-difluorophenyl)-5-fluoro-N-(5-(3-hydroxypropoxy)isothiazol-4-yl)picolinamide], for which the “CFTR Activity” value was determined as 0.1.

For `CC(O)CCOc1sncc1NC(=O)c1ccc(F)c(-c2c(F)cccc2F)n1` (stereo not shown) [Example 18, 6-(2,6-difluorophenyl)-5-fluoro-N-(5-(3-hydroxybutoxy)isothiazol-4-yl)picolinamide], the “CFTR Activity” value worked out at 0.12.

For the compound `O=C(Nc1cnsc1OCCCCO)c1ccc(F)c(-c2c(F)cccc2F)n1` [Example 19, 6-(2,6-difluorophenyl)-5-fluoro-N-(5-(4-hydroxybutoxy)isothiazol-4-yl)picolinamide], the “CFTR Activity” value was 0.1.

`CC(C)(O)CCCOc1sncc1NC(=O)c1ccc(F)c(-c2c(F)cccc2F)n1` [Example 20, 6-(2,6-difluorophenyl)-5-fluoro-N-(5-((4-hydroxy-4-methylpentyl)oxy)isothiazol-4-yl)picolinamide]: the “CFTR Activity” value was 0.1.

Take `O=C(Nc1cnsc1OCCC(O)CO)c1ccc(F)c(-c2c(F)cccc2F)n1` (stereo not shown) [Example 21, 6-(2,6-difluorophenyl)-N-(5-(3,4-dihydroxybutoxy)isothiazol-4-yl)-5-fluoropicolinamide]: the “CFTR Activity” value is recorded as 0.5.

For the compound `O=C(Nc1cnsc1OCC1CCOCC1)c1ccc(F)c(-c2c(F)cccc2F)n1` [Example 22, 6-(2,6-difluorophenyl)-5-fluoro-N-(5-((tetrahydro-2H-pyran-4-yl)methoxy)isothiazol-4-yl)picolinamide], the “CFTR Activity” value is reported as 0.3.

With `Cl.Nc1cc(F)c(-c2c(F)cccc2F)nc1C(=O)Nc1cnsc1OCC1CCNCC1` [Example 23, 3-amino-6-(2,6-difluorophenyl)-5-fluoro-N-(5-(piperidin-4-ylmethoxy)isothiazol-4-yl)picolinamide hydrochloride], the “CFTR Activity” value turned out to be 2.2.

Turning to `Cl.Nc1cc(F)c(-c2c(F)cccc2F)nc1C(=O)Nc1cnsc1OC1CCNC1` (stereo not shown) [Example 24, 3-amino-6-(2,6-difluorophenyl)-5-fluoro-N-(5-(pyrrolidin-3-yloxy)isothiazol-4-yl)picolinamide hydrochloride], the “CFTR Activity” value was 1.9.

For `Cl.Nc1cc(F)c(-c2c(F)cccc2F)nc1C(=O)Nc1cnsc1OC1CCNCC1` [Example 25, 3-amino-6-(2,6-difluorophenyl)-5-fluoro-N-(5-(piperidin-4-yloxy)isothiazol-4-yl)picolinamide hydrochloride], the “CFTR Activity” value turned out to be 2.5.

Regarding `Cl.Nc1cc(F)c(-c2c(F)cccc2F)nc1C(=O)Nc1cnsc1OC1CCCNCC1` (stereo not shown) [Example 26, 3-amino-N-(5-(azepan-4-yloxy)isothiazol-4-yl)-6-(2,6-difluorophenyl)-5-fluoropicolinamide hydrochloride], the “CFTR Activity” value is listed as 3.1.

Regarding `Cl.Nc1cc(F)c(-c2c(F)cccc2F)nc1C(=O)Nc1cnsc1O[C@H]1CC[C@H](N)CC1` [Example 27, 3-amino-N-(5-(((1r,4r)-4-aminocyclohexyl)oxy)isothiazol-4-yl)-6-(2,6-difluorophenyl)-5-fluoropicolinamide hydrochloride], the “CFTR Activity” value was 2.8.

In the case of `Cl.Nc1cc(F)c(-c2c(F)cccc2F)nc1C(=O)Nc1cnsc1OCC1CCNC1` (stereo not shown) [Example 28, 3-amino-6-(2,6-difluorophenyl)-5-fluoro-N-(5-(pyrrolidin-3-ylmethoxy)isothiazol-4-yl)picolinamide hydrochloride], the “CFTR Activity” value worked out at 1.7.

In the case of `NCC(CCl)Oc1sncc1NC(=O)c1ccc(F)c(-c2c(F)cccc2F)n1` (stereo not shown) [Example 29, N-(5-((1-amino-3-chloropropan-2-yl)oxy)isothiazol-4-yl)-6-(2,6-difluorophenyl)-5-fluoropicolinamide hydrochloride], the “CFTR Activity” value was determined as 1.4.

Turning to `Cl.NCC(CCl)COc1sncc1NC(=O)c1ccc(F)c(-c2c(F)cccc2F)n1` (stereo not shown) [Example 30, N-(5-(3-amino-2-(chloromethyl)propoxy)isothiazol-4-yl)-6-(2,6-difluorophenyl)-5-fluoropicolinamide hydrochloride], the “CFTR Activity” value was determined as 1.4.

As for `Cl.Nc1cc(F)c(-c2c(F)cccc2F)nc1C(=O)Nc1cnsc1OC1CNC1` [Example 31, 3-amino-N-(5-(azetidin-3-yloxy)isothiazol-4-yl)-6-(2,6-difluorophenyl)-5-fluoropicolinamide hydrochloride], the “CFTR Activity” value was found to be 0.1.
